Results published in ChEMBL document CHEMBL1201862, “PubChem BioAssay data set” (2004).
Values joined by “and” are separate entries in the source; they are usually repeats but may differ in a detail not shown here. Identical values can stand only once. Active and inactive are the calls of the source.

What was measured:
Cytochrome P450 2D6 = Cytochrome P450 2D6 (Homo sapiens, UniProt P10635);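 further: CYP2D6 member of a cytochrome P450 panel assay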
[1] = NIH-3T3 fibroblast cytotoxicity, dose response, cytotoxicity control, cell-based, fluorescence, Alamar Blue, secondary assay (AID 2327); type: functional;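 further: NIH-3T3 mouse fibroblasts cultured with fluconazole at 8 µg/mL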
[2] = fluconazole-exposed Candida albicans growth modulators – fluorescence, retest, confirmation (AID 2467); type: functional, cell-based
Cytochrome P450 1A2 = molecular target: T1, Cytochrome P450 1A2 (Homo sapiens, UniProt P05177);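 further: PubChem cytochrome P450 panel assay, CYP1A2 panel member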
T1 sequence (P05177 whole entry): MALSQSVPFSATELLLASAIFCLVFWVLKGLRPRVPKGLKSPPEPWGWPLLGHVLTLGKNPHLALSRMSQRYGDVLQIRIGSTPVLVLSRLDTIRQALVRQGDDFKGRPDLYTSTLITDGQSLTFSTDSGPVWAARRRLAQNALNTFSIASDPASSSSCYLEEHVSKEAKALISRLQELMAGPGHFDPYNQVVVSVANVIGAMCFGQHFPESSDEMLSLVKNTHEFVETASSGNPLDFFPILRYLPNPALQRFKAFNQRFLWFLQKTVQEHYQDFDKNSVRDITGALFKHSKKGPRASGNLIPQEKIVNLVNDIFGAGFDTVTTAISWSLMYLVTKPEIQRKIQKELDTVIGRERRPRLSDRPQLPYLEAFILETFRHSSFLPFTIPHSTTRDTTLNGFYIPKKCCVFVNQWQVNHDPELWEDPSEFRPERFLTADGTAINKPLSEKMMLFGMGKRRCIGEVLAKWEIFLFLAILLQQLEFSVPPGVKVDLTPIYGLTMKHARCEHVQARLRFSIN

Cytochrome P450 2C19 = Cytochrome P450 2C19 (Homo sapiens, UniProt P33261); experiment: Cytochrome panel assay with activity outcomes. Panel member name: p450-cyp2c19 Compounds with AC50 equal or less than 10 uM are considered active; type: functional
Cytochrome P450 3A4 = Cytochrome P450 3A4 (Homo sapiens, UniProt P08684);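 further: CYP3A4 tested as one member of a cytochrome P450 panel screen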
[3] = Trypanosoma cruzi growth suppression in host cells – NIH3T3 host cells, beta-gal luminescence, confirmation (AID 2044); type: functional, cell-based;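 further: intracellular parasites grown in NIH/3T3 mouse fibroblasts as host cells; luminescent beta-galactosidase reporter signal from transgenic T. cruzi replicating inside host cells; inhibitors lower the luminescence signal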
INS1 = experiment: INS-1E survival protection against cytokine death – cell-based, luminescence, retest, dose response (AID 449756); type: functional; settings: Rattus norvegicus;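 further: cell death triggered by IL-1 beta plus TNF-alpha plus IFN-gamma mixture; protective hits raise ATP signal compared with cytokine alone wells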
[4] = NIH3T3 cell viability loss – ATP luminescence, mouse fibroblasts, counter-screen, dose response (AID 2010); type: functional, cell-based; settings: NIH3T3;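 further: cells exposed to compound for about 90 hours before reading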
[5] = luciferase reporter signal suppression in cells – H4 neuroglioma cells, luminescence, dose response (AID 1990); type: functional, cell-based
[6] = Luminescence Cell-Based Dose Response HTS to Identify Inhibitors of 5'UTR Stem-Loop Driven Prion Protein mRNA Translation in H4 Neuroglioblastoma Cells. [Related pubchem assays: 1827 (Project Summary), 1813 (Primary HTS)]; type: functional
[7] = alpha-synuclein stem-loop luciferase translation blockers – H4 neuroglioma cells, luminescence, confirmation (AID 1988); type: functional, cell-based
cells = type: functional
Streptokinase A = molecular target: T2, Streptokinase A (Streptococcus pyogenes serotype M1, UniProt P10520); experiment: viability-normalized secreted streptokinase activity reduction – plasminogen activation absorbance, OD405, dose response (AID 1914); type: functional, Streptococcus pyogenes M1 GAS;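 further: secreted streptokinase activity via plasminogen activation per viability signal from cell pellet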
T2 sequence (P10520 whole entry): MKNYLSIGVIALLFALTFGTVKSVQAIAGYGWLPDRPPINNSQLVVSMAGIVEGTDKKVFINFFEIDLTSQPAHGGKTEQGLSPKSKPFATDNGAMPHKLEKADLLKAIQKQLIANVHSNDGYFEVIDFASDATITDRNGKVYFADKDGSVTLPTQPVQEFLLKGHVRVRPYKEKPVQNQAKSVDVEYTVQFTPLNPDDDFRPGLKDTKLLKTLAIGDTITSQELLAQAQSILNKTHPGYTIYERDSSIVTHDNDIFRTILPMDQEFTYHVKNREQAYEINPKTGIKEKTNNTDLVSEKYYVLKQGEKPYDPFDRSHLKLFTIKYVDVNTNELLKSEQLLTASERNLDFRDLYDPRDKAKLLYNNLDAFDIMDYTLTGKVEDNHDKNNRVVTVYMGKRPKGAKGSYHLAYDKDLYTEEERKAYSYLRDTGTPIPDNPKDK

[8] = test system: Streptococcus sp. 'group A'; experiment: Streptococcus pyogenes SK(-)GAS viability under kanamycin – luminescence, BacTiterGlo, confirmation, counter-screen for streptokinase expression inhibitor project, dose response (AID 1900); type: functional, organism-based; settings: Streptococcus sp. 'group A'
H4 = experiment: Luminescence Cell-Based Dose Response HTS to Identify Activators of 5'UTR Stem-Loop Driven Prion Protein mRNA Translation in H4 Neuroglioblastoma Cells. [Related pubchem assays: 1829 (Project Summary), 1814 (Primary HTS)]; type: functional; settings: Homo sapiens
Streptococcus = experiment: GAS UMAA2166 growth inhibition – luminescence, BacTiterGlo, counter-screen for streptokinase expression inhibitor project, dose response (AID 1915); type: functional, organism-based; settings: Streptococcus;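 further: potency for reduction of bacterial viability or growth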
[9] = Luminescence Cell-Based Dose Response HTS to Identify Activators of Luciferase Translation or Activity in H4 […] Cells. [Related pubchem assays: 1829 (Project Summary), 1814 (Primary HTS)]; type: functional

Chain of Cytochrome P450 2C19 (P33261 whole entry): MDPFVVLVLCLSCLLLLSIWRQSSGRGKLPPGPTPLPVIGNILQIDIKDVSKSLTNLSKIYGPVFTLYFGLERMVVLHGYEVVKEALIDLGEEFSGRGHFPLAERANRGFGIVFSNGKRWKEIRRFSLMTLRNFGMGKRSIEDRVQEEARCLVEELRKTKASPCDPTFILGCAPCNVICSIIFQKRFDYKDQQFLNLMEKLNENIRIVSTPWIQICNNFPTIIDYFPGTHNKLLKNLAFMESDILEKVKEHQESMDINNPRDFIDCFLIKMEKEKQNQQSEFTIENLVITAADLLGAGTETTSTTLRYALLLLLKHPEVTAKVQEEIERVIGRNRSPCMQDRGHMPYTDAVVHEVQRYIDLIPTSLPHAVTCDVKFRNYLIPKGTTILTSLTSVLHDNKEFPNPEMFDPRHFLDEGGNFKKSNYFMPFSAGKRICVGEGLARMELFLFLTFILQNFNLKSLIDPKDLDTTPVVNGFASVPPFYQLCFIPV
Chain of Cytochrome P450 2D6 (P10635 whole entry): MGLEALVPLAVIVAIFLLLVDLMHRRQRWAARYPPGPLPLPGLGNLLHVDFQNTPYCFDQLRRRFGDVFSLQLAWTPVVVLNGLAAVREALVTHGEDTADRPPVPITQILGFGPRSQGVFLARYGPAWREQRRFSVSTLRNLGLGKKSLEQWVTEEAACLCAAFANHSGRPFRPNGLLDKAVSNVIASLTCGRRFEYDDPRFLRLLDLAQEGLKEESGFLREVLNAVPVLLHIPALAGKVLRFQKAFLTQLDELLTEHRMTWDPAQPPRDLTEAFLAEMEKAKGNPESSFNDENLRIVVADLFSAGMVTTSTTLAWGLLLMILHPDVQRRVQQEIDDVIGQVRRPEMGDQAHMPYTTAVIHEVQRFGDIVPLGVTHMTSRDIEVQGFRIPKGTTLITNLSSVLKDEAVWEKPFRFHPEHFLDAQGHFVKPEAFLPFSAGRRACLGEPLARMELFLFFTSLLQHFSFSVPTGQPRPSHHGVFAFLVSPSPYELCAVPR
Chain of Cytochrome P450 3A4 (P08684 whole entry): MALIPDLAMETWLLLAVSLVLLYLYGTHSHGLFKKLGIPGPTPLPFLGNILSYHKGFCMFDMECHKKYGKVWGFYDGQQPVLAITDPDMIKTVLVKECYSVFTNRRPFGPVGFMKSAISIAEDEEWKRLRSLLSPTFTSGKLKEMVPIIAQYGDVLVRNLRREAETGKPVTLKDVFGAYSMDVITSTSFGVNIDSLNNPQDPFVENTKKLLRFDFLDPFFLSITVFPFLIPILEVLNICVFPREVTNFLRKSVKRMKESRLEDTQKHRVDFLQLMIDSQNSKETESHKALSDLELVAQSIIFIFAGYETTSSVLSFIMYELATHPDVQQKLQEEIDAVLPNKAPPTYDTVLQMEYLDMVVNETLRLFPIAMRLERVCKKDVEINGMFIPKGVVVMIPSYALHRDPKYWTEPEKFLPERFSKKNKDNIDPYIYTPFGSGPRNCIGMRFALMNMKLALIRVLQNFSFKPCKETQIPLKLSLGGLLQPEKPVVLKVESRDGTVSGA

For O=C(Cc1ccc(Br)cc1)Nc1ccccc1Sc1ccccc1, the AC50 (Cytochrome P450 2D6) was 11.2 µM (inconclusive).

For CCn1c2ccccc2c2cc(NC(=O)C(C)C)ccc21, the EC50 [1] was 63.3 µM (active) and the EC50 [2] was > 38 µM (not active).

For CNc1ncncc1-c1ccc(C(=O)N(C)C)cc1, the AC50 (Cytochrome P450 1A2) was 15.8 µM (inconclusive).

With Cc1ccccc1-c1nc(NC2CC2)c2ccccc2n1 the AC50 (Cytochrome P450 2D6) was 39.8 µM (inconclusive).

In the case of CN(C)C(=O)c1ccc(-c2nccc(-n3ccnc3)n2)cc1, the AC50 (Cytochrome P450 2C19; read-out: AC50) is reported as 39.8 µM (inconclusive), the AC50 (Cytochrome P450 3A4) is reported as 3.16 µM (inconclusive) and the AC50 (Cytochrome P450 2D6) is reported as 39.8 µM (inconclusive).

With Cc1cc(Oc2ccccc2)nc(-c2ccccc2O)n1 the EC50 [1] was > 150 µM (inconclusive) and the EC50 [2] was > 38 µM (not active).

For COc1cc2nc3c(c([Si](C)(C)C(C)(C)C)c2cc1OC)Cn1c-3cccc1=O, the AC50 (Cytochrome P450 2C19; read-out: AC50) was 39.8 µM (inconclusive).

With CN1/C(=C\P(=O)(N(C)C)N(C)C)C(C)(C)c2ccccc21 the EC50 [3] was 2.96 µM (active), the AC50 (INS1) was 4.32 µM (active) and the EC50 [4] was > 60 µM (not active).

In the case of COc1ccc(-n2c(=O)c(-c3cccc(Cl)c3)nc3cncnc32)cc1, the AC50 (Cytochrome P450 2C19; read-out: AC50) is reported as 39.8 µM (inconclusive).

For CN1CCN(c2ncc3ncc(=O)n(Cc4ccc(F)cc4)c3n2)CC1, the AC50 (Cytochrome P450 3A4) was 15.8 µM (inconclusive) and the AC50 (Cytochrome P450 1A2) was 25.1 µM (inconclusive).

With Nc1ncccc1OCc1cccc(C(F)(F)F)c1 the EC50 [5] was > 120 µM (not active), the EC50 [6] was > 120 µM (not active) and the EC50 [7] was > 120 µM (not active).

With Oc1cccc(Nc2ncnc3c2oc2ccccc23)c1 the EC50 [1] was > 160 µM (inactive) and the EC50 [2] was 3.71 µM (active).

With Cc1cc(C)c(NC(=O)CCN2CCN(Cc3ccccc3)CC2)c(C)c1 the EC50 [5] was > 120 µM (not active), the EC50 [6] was > 120 µM (not active) and the EC50 [7] was > 120 µM (not active).

For CC1CCCC(NC(=O)c2nnc(O)c3ccccc23)C1C (centres undefined), the AC50 (Cytochrome P450 2C19; read-out: AC50) was 20 µM (inconclusive).

With COc1cccc(NC(=S)N(CCc2nc3cc(C)c(C)cc3[nH]2)Cc2cccnc2)c1 the AC50 (Cytochrome P450 2D6) was 0.126 µM (inconclusive).

For Cn1cccc1CNCCc1ccccc1, the AC50 (Cytochrome P450 2C19; read-out: AC50) was 14.1 µM (inconclusive) and the AC50 (Cytochrome P450 3A4) was 31.6 µM (inconclusive).

For O=c1c(-c2ccc(Cl)cc2)nc2cnc(N3CCOCC3)nc2n1C1CC1, the AC50 (Cytochrome P450 1A2) was 1.26 µM (inconclusive).

With CCN(CC)c1ccc(/C=N/NC(=O)Cc2cccs2)c(O)c1 the AC50 (INS1) was 0.916 µM (active).

In the case of COc1ccc2oc(=O)c(/C(C)=N/NC(=O)c3ccncc3)cc2c1, the IC50 (cells) is reported as 1.31 µM (active).

For CCOc1cc(/C=N/NC(=O)c2cccnc2)ccc1OCC(N)=O, the EC50 [1] was > 150 µM (inactive) and the EC50 [2] was > 38 µM (not active).

For O=C(N/N=C/c1ccccc1O)NC12CC3CC(CC(C3)C1)C2, the EC50 (Streptokinase A) was > 150 µM (not active), the EC50 [8] was 22.3 µM (active) and the EC50 (H4) was > 120 µM (not active). The EC50 (Streptococcus) was 15.1 µM (active) and the EC50 [9] was 28.5 µM (active).

For COc1ccc(/N=C/c2ccc(CNS(=O)(=O)c3ccc(Cl)cc3)o2)cc1, the AC50 (Cytochrome P450 2C19; read-out: AC50) was 11.2 µM (inconclusive), the AC50 (Cytochrome P450 3A4) was 31.6 µM (inconclusive) and the AC50 (Cytochrome P450 1A2) was 25.1 µM (inconclusive).

For Fc1ccc(N/N=C/c2cccnc2)c(F)c1, the EC50 [1] was 16.3 µM (inconclusive) and the EC50 [2] was > 38 µM (not active).

With Cc1c(/C=N/CCOCc2ccccc2)cnn1C the AC50 (Cytochrome P450 2C19; read-out: AC50) was 22.4 µM (inconclusive) and the AC50 (Cytochrome P450 2D6) was 25.1 µM (inconclusive).

For CCNCCCNCCCNCCCNCC [BIS(ETHYL)NORSPERMINE], the AC50 (Cytochrome P450 2C19) was “inconclusive”.

For CC(C)(C(=O)c1cccnc1)c1cccnc1 [METYRAPONE], the AC50 (Cytochrome P450 1A2) was 12.6 µM (inconclusive).

For CCN(CC)CCOC(=O)c1ccc(N)cc1 [PROCAINE], the AC50 (Cytochrome P450 2D6) was 10 µM (inconclusive) and 39.8 µM (inconclusive).
